The target of data set [1] is T1, 5-HT1A receptor (Homo sapiens, UniProt P08908).
T1 construct: host or cells: CHO-K1 (co-expressing Ga15)
T1 sequence (P08908 1-422): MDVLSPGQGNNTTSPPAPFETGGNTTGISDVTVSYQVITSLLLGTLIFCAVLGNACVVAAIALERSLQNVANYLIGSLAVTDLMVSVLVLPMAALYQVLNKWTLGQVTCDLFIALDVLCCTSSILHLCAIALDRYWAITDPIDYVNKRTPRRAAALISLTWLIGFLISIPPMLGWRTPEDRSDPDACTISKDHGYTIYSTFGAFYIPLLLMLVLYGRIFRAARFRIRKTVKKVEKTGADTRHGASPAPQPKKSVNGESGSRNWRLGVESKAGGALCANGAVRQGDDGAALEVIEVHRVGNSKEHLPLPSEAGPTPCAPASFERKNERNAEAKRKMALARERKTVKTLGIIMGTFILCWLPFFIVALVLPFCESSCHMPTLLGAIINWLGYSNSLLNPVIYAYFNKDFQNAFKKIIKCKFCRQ
Nature of the data set: cAMP-Glo assay in +5-HT1A vs −5-HT1A CHO-K1 cells. It counts as cell-based. The following applies: for 5-HT1A receptor modulation, +5-HT1A vs −5-HT1A cultures: cAMP assay with 4 mM forskolin; for cAMP levels in +5-HT1A cells with increasing ligand: cells stimulated with 4 mM forskolin, compared with −5-HT1A cells.

The target in data set [2] is 5-HT2A receptor (Homo sapiens, UniProt P28223). Briefly: [3H]ketanserin competition binding assay (SPA). The settings on record: 1 nM [3H]ketanserin; control ligands, FIG. 3E, 3F.
Data set [3] has as its target T2, 5-HT2A receptor (Mus musculus, UniProt P35363).
T2 construct: 8-week old C57BL/6-Elite male and female mice were obtained from Charles River; tissue Charles River; host or cells: living C57BL/6-Elite mice (neuronal receptor, in vivo)
Briefly: Drug-induced Head Twitch Response (HTR). Format: in vivo. The settings on record: C57BL/6 mice; 1 mg/kg i.p.; 15-to-30-minute window after administration.

Data set [4] is described as follows: Stability / psilocin release in enzyme-free control buffer. The following applies: enzyme-free control buffer pH 7.4, 37° C., 2 hours. Format: in vitro ADME. An excerpt: (§1) A fundamental evaluation in drug development is the assessment of absorption, distribution, metabolism, excretion, and pharmacokinetics (ADME/PK) (Eddershaw et al., 2000, Drug Discovery Today 5(9): 409-414). […] Drug stability upon exposure to human liver microsomes and liver S9 cellular fractions is a common in vitro assay to approximate in vivo, liver-based drug metabolism (Richardson et al., 2016 Drug Metabolism Letters 10:83-90). First-pass metabolism is also often approximated in vitro using intestinal microsome and cellular S9 fractions (Hatley et al., 2017, Biopharmaceuticals & Drug Disposition, 38(2):155-160). […] Supernatants were analyzed for the presence of candidate prodrugs (parent molecule) and psilocin (the predicted metabolite) using Orbitrap LC-MS (Thermo Scientific) using previously described methods (Menéndez-Perdomo et al., 2021, J Mass Spectrom, 56: e4683). […] Assay concentrations (μM) of both parent ‘prodrug’ molecule and psilocin metabolite, as quantified through LC-MS using routine standard curve procedures, were plotted as functions of assay time (minutes). The metabolism rate (T1/2) was determined from the metabolism curve plot using the one phase decay feature of GraphPad PRISM software (Version 9.2.0). The quantity of parent prodrug at time zero was set as 100%. […]

Data set [5] can be described thus: Metabolic stability / psilocin release in human liver microsomes. It counts as in vitro ADME. The following applies: 400 μg/ml HLM, NADPH, 37° C.
Excerpt: as §1
Background: Microsomes from liver hold many membrane-bound enzymes, among them those of drug oxidation.

The nature of data set [6]: Mouse PK study (IV and PO), plasma parent compound and psilocin by LC-MS/MS. It counts as in vivo. The settings on record: mouse; for Plasma concentration of psilocybin: psilocybin 1 mg/kg i.v. From the text: Briefly, the procedure was as follows. […] 19, 2022.
The nature of data set [7]: Metabolic stability / psilocin release in human liver S9. Format: in vitro ADME. The following applies: 400 μg/ml HLS9, NADPH, 37° C.
Excerpt: as §1

T2 sequence (P35363 whole entry): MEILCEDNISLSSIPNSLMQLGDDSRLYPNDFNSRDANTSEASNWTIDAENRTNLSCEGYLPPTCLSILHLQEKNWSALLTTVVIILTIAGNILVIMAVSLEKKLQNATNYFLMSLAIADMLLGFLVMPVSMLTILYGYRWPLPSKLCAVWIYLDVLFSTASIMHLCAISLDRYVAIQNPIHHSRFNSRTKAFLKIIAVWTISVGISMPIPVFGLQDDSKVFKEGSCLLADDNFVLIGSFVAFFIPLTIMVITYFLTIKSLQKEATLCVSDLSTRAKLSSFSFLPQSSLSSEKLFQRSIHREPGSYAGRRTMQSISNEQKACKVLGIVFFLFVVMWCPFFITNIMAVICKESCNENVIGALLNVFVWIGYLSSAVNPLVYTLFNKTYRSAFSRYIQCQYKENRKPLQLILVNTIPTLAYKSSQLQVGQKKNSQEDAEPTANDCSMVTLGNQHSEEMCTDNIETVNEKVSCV
5-HT2A receptor (Homo sapiens, UniProt P28223), sequence (P28223 whole entry): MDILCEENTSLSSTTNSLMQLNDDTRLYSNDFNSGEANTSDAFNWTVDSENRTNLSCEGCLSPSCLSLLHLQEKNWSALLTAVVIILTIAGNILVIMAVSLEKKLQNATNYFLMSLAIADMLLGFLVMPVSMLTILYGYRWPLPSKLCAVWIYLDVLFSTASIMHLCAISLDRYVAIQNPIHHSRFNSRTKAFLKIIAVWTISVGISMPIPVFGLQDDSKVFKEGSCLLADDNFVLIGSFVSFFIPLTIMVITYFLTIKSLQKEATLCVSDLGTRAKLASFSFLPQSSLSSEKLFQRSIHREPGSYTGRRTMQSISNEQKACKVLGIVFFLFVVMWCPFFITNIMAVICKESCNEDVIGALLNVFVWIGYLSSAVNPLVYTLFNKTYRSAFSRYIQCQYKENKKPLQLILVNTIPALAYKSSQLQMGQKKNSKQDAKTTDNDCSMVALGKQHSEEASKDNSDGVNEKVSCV

For the compound `COC(=O)c1cccc(C(=O)Oc2cccc3[nH]cc(CCN(C)C)c23)c1` [C(XLIII)], the “5-HT1A receptor modulation, +5-HT1A vs −5-HT1A cultures” value in data set [1] is on record as “receptor modulation at higher ligand concentrations”.
Regarding `N[C@@H](Cc1c[nH]c2ccccc12)C(=O)O` [tryptophan, reference compound], the “competition binding vs [3H]ketanserin at 5-HT2A receptor” value in data set [2] is given as “no binding”. The “cAMP levels in +5-HT1A cells with increasing ligand” value in data set [1] is “no reduction in cellular cAMP levels”.
The corresponding values for `CN(C)CCc1c[nH]c2cccc(O)c12` [psilocin, reference compound] are “binding” and “reduction in cAMP levels”.
Take `NCCc1c[nH]c2ccc(O)cc12` [serotonin, reference compound]: the “cAMP levels in +5-HT1A cells with increasing ligand” value in data set [1] is on record as “reduction in cAMP levels”.
On to `CN(C)CCc1c[nH]c2cccc(OC(=O)c3cccc(C(=O)Oc4cccc5[nH]cc(CCN(C)C)c45)c3)c12` [C(VII)], for which, in data set [3], the “Head Twitch Response (HTR) incidence relative to vehicle” value is “Elevated incidences of HTR”. Further, the “5-HT1A receptor modulation, +5-HT1A vs −5-HT1A cultures” value in data set [1] is on record as “no significant receptor modulation”.
For `CN(C)CCc1c[nH]c2cccc(OP(=O)(O)O)c12` [psilocybin, reference compound], in data set [4], the “stability in assay buffer” value is “stability of psilocybin was confirmed”. Moreover, in data set [5], the “stability / conversion to psilocin in liver fractions (HLM)” value was “stable in liver fractions with no conversion to psilocin”. In addition, the “detectability of parent compound in plasma, i.v. dosing” value in data set [6] (1 mg/kg i.v.) is listed as “only detectable in i.v. administered animals”. Besides, the “detectability of parent compound in plasma, oral dosing” value in data set [6] (oral, any dose (1, 3, 10 mg/kg)) is “not detectable”. Besides, the “Plasma concentration of psilocybin” value in data set [6] (2 h), in data set [6] (4 h) and in data set [6] (6 h) was “No Peak” in each case. Besides, the “Plasma concentration of psilocin” value in data set [6] (psilocybin 1.56 mg/kg oral (nominal 1 mg/kg), 24 h) is recorded as “BLQ”. In data set [7], the “stability / conversion to psilocin in liver fractions (HLS9)” value is reported as “stable in liver fractions with no conversion to psilocin”.
In the case of `COCCOCCOCC(=O)Oc1cccc2[nH]cc(CCN(C)C)c12` [C(III)], the “Head Twitch Response (HTR) incidence relative to vehicle” value in data set [3] is “Elevated incidences of HTR”. In data set [1], the “5-HT1A receptor modulation, +5-HT1A vs −5-HT1A cultures” value is given as “significant receptor modulation”.

These data come from patent US11746087B1, “C4-carboxylic acid-substituted tryptamine derivatives and methods of using” (priority 2022, dated 2023).
